{
  "source": "paper PMC12512694",
  "about": "“PbrNAC34a- PbrMYB3/65- PbrACO2 cascade plays a role in citrate difference between the pericarp and cortex tissues of pear (P. bretschneideri Rehd.) fruit” (Molecular Horticulture, 2025)",
  "test_system": "PbrACO2",
  "details": "citrate to isocitrate conversion; recombinant His-PbrACO2",
  "data": [
    {"smiles": "O=C(O)CC(O)(CC(=O)O)C(=O)O", "note": "[citrate]", "values": [
      {"measurement": "Km", "value": 630, "unit": "µM"}
    ]}
  ]
}
